Where two headings read alike, the source gives them in different places. Where a SMILES comes first, the peptide text is derived from it. Where no end group is shown, it is not given here.
What was measured:
[1] = system: MDA-MB-435 breast carcinoma cells; experiment: Inhibition of MDA-MB-435 cell adhesion to immobilized peptide 678 (microscopic adhesion assay); format: cell-based, human
Description: (§1) Adhesion assays of cells other than small cell lung carcinoma (SCLC)-Adhesion was measured on polystyrene or glass substrates coated with peptides or proteins as previously described (Guo et al., 1992). Peptides dissolved in PBS at 0.4 to 50 μM were incubated in polystyrene microliter plate wells overnight at 4° C. The wells were washed 3 times with distilled water. Adsorbed peptide was quantified using the BCA assay (Pierce Chemical) measuring absorbance at 570 and 630 nm as described by the supplier's protocol. The assay for adsorption was calibrated using purified peptide in solution as a standard. After blocking with 1% BSA in Dulbecco's PBS, adhesion assays were performed by adding cells suspended in DMEM (BAE cells) or medium 199 (human cells) containing 1 mg/ml BSA. Cell attachment and spreading was quantified microscopically.

HUVEC = HUVEC spreading on coated substrates; format: cell-based, human
Description: FIGS. 14A, 14B and 14C display α3β1 and αvβ3 integrin-mediated spreading of endothelial cells on thrombospondin-1. […] Results are expressed as percent of the response for untreated cells, mean±S.D., n=3.
as §1

[2] = system: MDA-MB-435 breast carcinoma cells
Description: MDA-MB-435 cell adhesion to microliter plate wells coated with 5 uM peptide 678 was determined in the presence of the indicated concentrations of soluble carboxamidomethyl-peptide 716 or peptide 716 covalently linked to FICOLL™ as previously described (Guo et al., 1997). After washing twice to remove unattached cells, adherent cells were quantified by detection of cellular hexosaminidase using p-nitrophenyl-N-acetylglucosaminide as substrate. Released p-nitrophenol was detected by absorbance at 405 nm. Results are mean+/−SD, n=3.
In this case, the adherent cells are quantified by detection of cellular hexosaminidase using p-nitrophenyl-N-acetylglucosaminidine as substrate. Released p-nitrophenol is detected by absorbance at 405 nm.

[3] = system: MDA-MB-435 breast carcinoma cells; experiment: Direct adhesion of MDA-MB-435 cells to peptides adsorbed on polystyrene; format: cell-based, human; details: peptides adsorbed at 10 μM (FIG. 2)
Description: as §1

[4] = system: chick chorioallantoic membrane (CAM) angiogenesis; experiment: Chick chorioallantoic membrane (CAM) angiogenesis assay; format: in vivo, chicken; details: relative to control gels, mean ± SD
Description: Fertilized Leghorn chicken eggs were obtained from Ramona Duck farm (Westminster, Calif.). At day 3 of development, the embryos were placed on 100 mm petri dishes. Assays were performed as previously described (Iruela-Arispe et al., 1999). […] Peptides were filtered on Centricon P100 prior to their analysis on the CAM assays to eliminate traces of endotoxin. Pellets were applied to the outer ⅓ of the CAM, and the assay was performed for 24 h. Detection of capillary growth was done by injection of FITC-dextran in the bloodstream and observation of the pellets under a fluorescent inverted microscope. Positive controls (growth factors and vehicle), as well as negative controls (vehicle alone) were placed in the same CAM and used as reference of 100% stimulation or baseline inhibition (0%), and response to the peptides was determined according to these internal controls. Assays were performed in duplicate in each CAM and in four independent CAMs (total of 8 pellets).

H69 SCLC cells = experiment: SCLC cell adhesion to extracellular matrix proteins, H69; format: cell-based, human
Description: (§2) For adhesion assays of SCLC, these cells were washed once with RPMI 1640 and centrifuged at 400×g for 3 min. The pellet was suspended in 2.5 mM EDTA in PBS, pH 7.4 and incubated for 10 min at 37° C. After trituration three times and centrifugation, the cells were resuspended in RPMI 1640 containing 0.1% BSA (Sigma Co. St Louis, Mo.).
(§3) Adhesion of SCLC cells to extracellular matrix proteins. Extracellular matrix proteins or peptides in Dulbecco's PBS were adsorbed onto polystyrene by incubating overnight at 4° C. […] The supernatant fluid was removed, and the dishes were incubated with Tris-gelatin (ICN) (50 mM Tris-HCl, 110 mM NaCl, 5 mM CaCl2, 0.1 mM phenylmethylsulfonyl fluoride, 0.2% gelatin and 0.02% NaN3, pH 7.8) or Dulbeccos PBS with 1% BSA, as indicated, for 30 min to minimize nonspecific adhesion. The disks were washed twice with cold PBS, pH 7.2 and overlayed with dissociated SCLC cells prepared as described above at a density of 2.5×10^5/cm^2.
(§4) For inhibition studies with SCLC cells, inhibitors or antibodies were added and incubated with SCLC cells at the indicated concentrations. After incubation for 60-90 min at 37° C., the disks were washed by dipping six times in PBS, pH 7.2, fixed with 1% glutaraldehyde in PBS, pH 7.2, and stained with Diff-Quik. Attached cells were counted microscopically.

N417 SCLC cells = experiment: SCLC cell adhesion to extracellular matrix proteins, N417; format: cell-based, human
Description: as §2, §3, §4

H345 SCLC cells = experiment: SCLC cell adhesion to extracellular matrix proteins, H345; format: cell-based, human
Description: as §2, §3, §4

[5] = Table 3, 5 μM peptide 678, read-out: IC50 (μM), inhibition of MDA-MB-435 cell adhesion to immobilized peptide 678
[6] = microscopic adhesion assay, polystyrene coated with 5 μM peptide 678, peptides in solution, read-out: Inhibition of peptide 678 (IC50)
[7] = substrate coated at 6.2 μg/ml, mean ± S.D., n = 3

Description for BAE cells: Direct adhesion of BAE cells to the adsorbed peptides or uncoated substrate (control) are presented as mean±SD, n=3. […] Two flasks of BAE cells were grown to confluence. One flask was harvested and replated in fresh medium at 25% confluency. Fresh medium was added at the same time to the second flask. After 16 h, cells from both flasks were dissociated using EDTA and adhesion was measured on substrates coated with 40 μg/ml TSP1, 10 μg/ml vitronectin, 20 μg/ml plasma fibronectin, or 5 μg/ml type I collagen. The percent spread cells after 60 min is presented as mean±SD, n=3 for a representative experiment.
Results are presented as mean±SD, n=3. […] The percent spread cells was determined at 60 min.

CC(C)C[C@H](NC(=O)[C@H](CCCNC(=N)N)NC(=O)[C@H](CC(C)C)NC(=O)[C@H](CC(N)=O)NC(=O)[C@H](CCCNC(=N)N)NC(=O)[C@@H](NC(=O)[C@H](CS)NC(=O)CNC(=O)[C@H](CCCNC(=N)N)NC(=O)[C@H](Cc1ccccc1)NC(=O)[C@H](CO)NC(=O)[C@H](C)NC(=O)[C@H](CCCNC(=N)N)NC(=O)[C@H](CO)NC(=O)[C@H](CO)NC(=O)[C@H](CC(C)C)NC(=O)[C@H](CS)NC(=O)[C@H](CC(N)=O)NC(=O)[C@H](CCC(N)=O)NC(=O)[C@@H](N)CCCCN)C(C)C)C(=O)N[C@@H](CO)C(=O)N[C@@H](CCCNC(=N)N)C(=O)O [Peptide 675, reference compound] (H-KQNCLSSRASFRGCVRNLRLSR-OH; N-terminus and C-terminus assumed)
IC50 ([1]; read-out: IC50, inhibition of adhesion to either peptide or TSP1, tested in solution, data not shown): 700 µM

CN(Cc1nc2ccccc2[nH]1)C(=O)c1ccc2c(c1)CN(C)C(=O)[C@H](CC(=O)O)N2 [SB223245, reference compound]
inhibition of HUVEC spreading on TSP1 (HUVEC): did not significantly inhibit
inhibition of HUVEC spreading on vitronectin (HUVEC): completely inhibited
inhibition of BAE cell spreading on TSP1 (BAE cells; single agent): partially inhibited

AQGVLQNVRFVF [Peptide 697]
IC50 [1, 5]: 5 µM
IC50 [1, 6]: 5 µM

Ac-LQNVRF-NH2 [Peptide 681, ac-LQNVRF-am]
IC50 [1, 6]: 500 µM

Ac-QGVLQNVRF-OH [Peptide 704]
IC50 [2]: ~100 µM

ELTGAARKGSGRRLVKGPD [Hepl, focal adhesion disrupting peptide from the amino terminal domain of TSP1]
promotion of MDA-MB-435 cell adhesion [3]: did not promote

FAGVLQNVRFVF [Peptide 696]
IC50 [2]: 12 µM
IC50 [1, 5]: 1.8 µM
IC50 [1, 6]: 1.8 µM
Angiogenic response (% inhibition) ([4]; 5 μM peptide): 5 ± 2%
Angiogenic response (% inhibition) ([4]; 10 μM peptide): 9 ± 3%
Angiogenic response (% inhibition) ([4]; 20 μM peptide): 12 ± 4%

FQGVAQNVRFVF [Peptide 695]
IC50 [1, 5]: 5 µM
IC50 [1, 6]: 5 µM

FQGVLANVRFVF [Peptide 687]
IC50 [1, 5]: 3 µM
IC50 [1, 6]: 3 µM

FQGVLNNVRFVF [Peptide 698]
IC50 [1, 6]: 3 µM

FQGVLQNARFVF [Peptide 691]
IC50 [1, 5]: > 300 µM
IC50 [1, 6]: > 300 µM

FQGVLQNVHFVF [Peptide 694]
IC50 [1, 5]: 54 µM
IC50 [1, 6]: 54 µM

FQGVLQNVKFVF [Peptide 702]
IC50 [2]: 25 µM
IC50 [1, 5]: 6 µM
IC50 [1, 6]: 6 µM

FQGVLQNVQFVF [Peptide 703]
IC50 [2]: 300 µM
IC50 [1, 5]: > 100 µM
IC50 [1, 6]: > 100 µM

FQGVLQNVRAVF [Peptide 692]
IC50 [1, 5]: 18 µM
IC50 [1, 6]: 18 µM

FQGVLQNVRF [Peptide 682]
IC50 [1, 6]: 6 µM

FQGVLQNVRFVA [Peptide 693]
IC50 [1, 5]: 27 µM
IC50 [1, 6]: 27 µM

GRGDSP [reference compound]
spreading response on TSP1 resistant to the peptide (BAE cells; 300 μM GRGDSP (FIG. 14A)): Approximately 20%
inhibition of BAE cell spreading on TSP1, GRGDSP combined with the α3β1 binding peptide (BAE cells; combination with peptide 678): completely inhibited

KRFKQDGGWSHWSPWSS [Peptide 246]
promotion of MDA-MB-435 cell adhesion [3]: promoted adhesion

KRFYVVMWKK [Peptide 4N1K]
promotion of MDA-MB-435 cell adhesion [3]: promoted adhesion

LQNVRFVF [Peptide 684]
IC50 [1, 6]: 300 µM

NGVQYRNC [Peptide 500]
promotion of MDA-MB-435 cell adhesion [3]: weaker adhesive activities

QGVLQNVR [Peptide 683]
IC50 [1, 6]: > 300 µM

QGVLQNVRFVF [Peptide 685]
IC50 [1, 6]: 24 µM

SPWSSCSVTCGDGVITRIR [Mal-II]
promotion of MDA-MB-435 cell adhesion [3]: weaker adhesive activities

TPGQVRTLWHDP [Peptide 701]
IC50 [1, 6]: > 300 µM

VLQNVRFVF [Peptide 688]
IC50 [1, 6]: > 100 µM

fibronectin
SCLC cell adhesion (H69 SCLC cells; 12.5 μg/ml): 5 ± 1 cells/mm2
SCLC cell adhesion (H69 SCLC cells; 25 μg/ml): 13 ± 3 cells/mm2
SCLC cell adhesion (H69 SCLC cells; 50 μg/ml): 22 ± 7 cells/mm2
SCLC cell adhesion (H69 SCLC cells; [7]): 1 ± 1 cells/mm2
SCLC cell adhesion (N417 SCLC cells; 6.2 μg/ml): 19 ± 2 cells/mm2
SCLC cell adhesion (N417 SCLC cells; 12.5 μg/ml): 48 ± 4 cells/mm2
SCLC cell adhesion (N417 SCLC cells; 25 μg/ml): 86 ± 6 cells/mm2
SCLC cell adhesion (N417 SCLC cells; 50 μg/ml): 78 ± 2 cells/mm2
SCLC cell adhesion (H345 SCLC cells; 6.2 μg/ml): 0 cells/mm2
SCLC cell adhesion (H345 SCLC cells; 12.5 μg/ml): 6 ± 2 cells/mm2
SCLC cell adhesion (H345 SCLC cells; 25 μg/ml): 25 ± 5 cells/mm2
SCLC cell adhesion (H345 SCLC cells; 50 μg/ml): 17 ± 5 cells/mm2

laminin: murine laminin-1 purified from the EHS tumor
SCLC cell adhesion (H69 SCLC cells; 12.5 μg/ml): 16 ± 1 cells/mm2
SCLC cell adhesion (H69 SCLC cells; 25 μg/ml): 82 ± 8 cells/mm2
SCLC cell adhesion (H69 SCLC cells; 50 μg/ml): 108 ± 11 cells/mm2
SCLC cell adhesion (H69 SCLC cells; [7]): 1 ± 1 cells/mm2
SCLC cell adhesion (N417 SCLC cells; 6.2 μg/ml): 5 ± 1 cells/mm2
SCLC cell adhesion (N417 SCLC cells; 12.5 μg/ml): 78 ± 3 cells/mm2
SCLC cell adhesion (N417 SCLC cells; 25 μg/ml): 151 ± 6 cells/mm2
SCLC cell adhesion (N417 SCLC cells; 50 μg/ml): 160 ± 3 cells/mm2
SCLC cell adhesion (H345 SCLC cells; 6.2 μg/ml): 6 ± 2 cells/mm2
SCLC cell adhesion (H345 SCLC cells; 12.5 μg/ml): 8 ± 1 cells/mm2
SCLC cell adhesion (H345 SCLC cells; 25 μg/ml): 151 ± 31 cells/mm2
SCLC cell adhesion (H345 SCLC cells; 50 μg/ml): 148 ± 9 cells/mm2

peptide 716 conjugated to FICOLL: peptide 716 covalently linked to FICOLL (polysucrose) (FQGVLQNVRFVF; not fully specified (N-terminus); also: number of peptides per FICOLL polymer not given here)
inhibition of adhesion of MDA-MB-435 cells to peptide 678, compared to free peptide 716 ([2]; hexosaminidase detection): enhanced

B1: vitronectin: human vitronectin from Sigma (protein, UniProt P04004 20-478, looked up)
Vitronectin: DQESCKGRCTEGFNVDKKCQCDELCSYYQSCCTDYTAECKPQVTRGDVFTMPEDEYTVYDDGEEKNNATVHEQVGGPSLTSDLQAQSKGNPEQTPVLKPEEEAPAPEVGASKPEGIDSRPETLHPGRPQPPAEEELCSGKPFDAFTDLKNGSLFAFRGQYCYELDEKAVRPGYPKLIRDVWGIEGPIDAAFTRINCQGKTYLFKGSQYWRFEDGVLDPDYPRNISDGFDGIPDNVDAALALPAHSYSGRERVYFFKGKQYWEYQFQHQPSQEECEGSSLSAVFEHFAMMQRDSWEDIFELLFWGRTSAGTRQPQFISRDWHGVPGQVDAAMAGRIYISGMAPRPSLAKKQRFRHRNRKGYRSQRGHSRGRNQNSRRPSRATWLSLFSSEESNLGANNYDDYRMDWLVPATCEPIQSVFFFSGDKYYRVNLRTRRVDTVDPPYPRSIAQYWLGCPAPGHL
percent spread BAE cells on substrate (BAE cells; cells harvested from a confluent monolayer): approximately 60%

From US8114406B2, “Peptides and their utility in modulation of behavior of cells expressing α3β1 integrins” (The United States of America as represented by the …, priority 1999, dated 2012)
